This passage reports inhibition in vivo, IC50 and Activity results from ChEMBL document CHEMBL5500370, “Discovery of potent and novel dual NAMPT/BRD4 inhibitors for efficient treatment of hepatocellular carcinoma” (Eur J Med Chem, 2024).

Calls of active or inactive are those of the source. No cut-off for these calls is given here.

Assay [1] has as its system HCCLM3. Description: Antitumor activity against human HCCLM3 cells xenografted in BALB/c nude mouse at 40 mg/kg, ip for 27 days relative to control. In kind it is functional. To be noted: HCCLM3, 648 h, time 27 day, read-out: TGI. Background: A xenograft is tissue or cells of one species grown in another, often human tumour cells in immunodeficient mice.
For assay [2], the target named is Bromodomain-containing protein 4 (Homo sapiens, UniProt O60885). The assay can be described thus: Inhibition of BRD4 BD1 (unknown origin) incubated for 120 mins by TR-FRET assay. Background: Time-resolved FRET reads energy transfer from a long-lived donor to a nearby acceptor.
Assay [3] relates to Hep 3B2. The assay can be described thus: Antimigratory activity in human Hep3B cells measured upto 24 hrs by wound healing assay. In kind it is functional, cell-based. Particulars: dose 1-10 µM.
The subject of assay [4] is Hep 3B2. The assay can be described thus: Induction of apoptosis in human Hep3B cells assessed as early apoptotic cells at 1 uM measured after 72 hrs by Annexin V-FITC/PI staining based flow cytometry (reference value: 2.13 %). In kind it is functional.
Assay [5] deals with Hep 3B2. The assay can be described thus: Downregulation of NAPRT level in human Hep3B cells at 1 to 10 uM measured after 72 hrs by immunoblot analysis. The assay is classed as functional, cell-based. To be noted: dose 1-10 µM. In general terms: Immunoblotting shows a protein as a band on a membrane.
Assay [6] relates to Hep 3B2. Description: Antimigratory activity in human Hep3B cells measured upto 24 hrs by transwell assay. The assay is classed as functional, cell-based. Particulars: dose 1-10 µM.
Assay [7] deals with Hep 3B2. The assay can be described thus: Antiproliferative activity against NAMN-treated human Hep3B cells incubated for 120 hrs by MTT assay. The assay is classed as functional, cell-based.
Assay [8] relates to Hep 3B2. Description: Induction of cell cycle arrest at S phase in human Hep3B cells at 1 uM measured after 72 hrs by PI/RNase staining based flow cytometry (reference value: 31.90 %). In kind it is functional.
Assay [9] deals with Hep 3B2. The assay can be described thus: Downregulation of NAMPT level in human Hep3B cells at 1 to 10 uM measured after 72 hrs by immunoblot analysis. To be noted: dose 1-10 µM. In kind it is functional, cell-based.
Assay [10] concerns Hep 3B2. Description: Induction of apoptosis in human Hep3B cells assessed as necrotic cells at 5 uM measured after 72 hrs by Annexin V-FITC/PI staining based flow cytometry (reference value: 2.74 %). The assay is classed as functional.
Assay [11] relates to Hep 3B2. The assay can be described thus: Induction of cell cycle arrest at S phase in human Hep3B cells at 10 uM measured after 72 hrs by PI/RNase staining based flow cytometry (reference value: 31.90 %). In kind it is functional.
Assay [12] has as its system Hep 3B2. Description: Induction of apoptosis in human Hep3B cells assessed as late apoptotic cells at 5 uM measured after 72 hrs by Annexin V-FITC/PI staining based flow cytometry (reference value: 1.05 %). In kind it is functional.
In assay [13] the test system is HCCLM3. Description: In vivo inhibition of NAMPT in human HCCLM3 cells xenografted in BALB/c nude mouse assessed as reduction in NAD+ level in tumor tissue administered intraperitoneally for 27 days. In kind it is functional, organism-based. To be noted: dose 40-80 mg/kg, route ip, time 27.0 day.
The test system of assay [14] is Hep 3B2. Description: Induction of apoptosis in human Hep3B cells assessed as late apoptotic cells at 1 uM measured after 72 hrs by Annexin V-FITC/PI staining based flow cytometry (reference value: 1.05 %). In kind it is functional.

For `Cc1sc2c(c1C)C(c1ccc(Cl)cc1)=N[C@@H](CC(=O)NCCCNC(=O)/C=C/c1cccnc1)c1nnc(C)n1-2`, the inhibition in vivo at 40 mg/kg in assay [1] stood at 37.2%. Moreover, the IC50 in assay [2] turned out to be 12 nM. The Activity entry in [3] is “Dose-Dependent Effect”; in [4], 8.83%; in assay [6], “Dose-Dependent Effect”; in [8], 24.18%; in [10], 4.6%; in assay [11], 18.21%. The Activity in assay [12] came out at 6.24%; in [14], 4.58%. For the same molecule, the result in [5], in [9] and in [13] was Active. The result in [7] was inactive.

Usually IC50 stands for the concentration at which inhibition is half-maximal. A lower IC50 goes with higher potency.
